Laboratory results: patent publication US11434205B2, “Substituted imidazole carboxylate derivatives and the use thereof” (priority 2018, dated 2022)

Experiments:
[1] = test system: rats; test: Loss of righting reflexes (LORR) assay in rats, ED50 by up and down method; type: in vivo, rat; settings: tail vein, class symbols; for ED50: Rattus norvegicus
Protocol: The Anesthetic Activity of the Compounds was Assessed in Rats Using a Loss of Righting Reflexes (LORR) Assay
(§1) Adult male Sprague-Dawley rats (250-300 g) were selected for the experiment. […] The anesthesia effects of the compounds were assessed in rats using a LORR assay and a period >30 s was considered as an indicator of general anesthesia. Then the up and down method was used to determine 50% effective dose (ED50). The drugs were administered through the tail vein of rats in a volume of 0.6 mL and at a rate of 0.1 mL/s.

[2] = test system: rats
Protocol: as §1

[3] = test system: rats; test: Pharmacological characteristics at equivalent doses (2×ED50) in rats; settings: 2×ED50, tail vein; for Adverse reactions: Red urine (incidence): DMSO solution (DMSO alone 10/10); for Onset time: time of LORR; for Adverse reactions: Tremor (incidence): animals affected/animals
Protocol: Comparison of Pharmacological Characteristics of the Compounds at Equivalent Doses (2×ED50) in Rats
Adult male Sprague-Dawley rats (250-300 g) were selected for the experiment (n=8). […] The drugs were administered at a dose twice their ED50 through the tail vein of rats in a volume of 0.6 mL and at a rate of 0.1 mL/s. In addition, the time of LORR was recorded as the onset time of anesthesia. […] Furthermore, the duration of the pharmacological effects is sufficient to meet the time requirements for rapid induction of general anesthesia and for diagnostic examinations, some short invasive clinical examinations, or operations.

[4] = test system: secretion of corticosterone, H295R cell line; test: cells; type: cell-based; settings: for Corticosterone as an indicator to determine the presence of inhibition: H295R; for EC50: Homo sapiens, NCI-H295R, read-out: EC50 (Corticosterone)
Protocol: (§2) The Effects of the Compounds on Adrenocortical Function In Vitro Test
(§3) Then secretion of the cortisol and corticosterone in the supernatant, was measured using HPLC-MS/MS method to determine whether the compounds of the present invention had adrenotoxic potential.

[5] = test system: secretion of cortisol, H295R cell line; test: cells; type: cell-based; settings: for Cortisol as an indicator to determine the presence of inhibition: H295R; for EC50: Homo sapiens, NCI-H295R, read-out: EC50 (Cortisol)
Protocol: as §2, §3

Structure (SMILES)	ED50 [1]	Approximate therapeutic index [2]	Minimal lethal dose [2]	Righting reflex duration [3]	Adverse reactions: Red urine (incidence) [3]	Onset time [3]	Corticosterone as an indicator to determine the presence of inhibition ([4]; Table C3)	EC50 [4]	Cortisol as an indicator to determine the presence of inhibition ([5]; Table C3)	EC50 [5]	Corticosterone as an indicator to determine the presence of inhibition ([4]; Table A3)	Cortisol as an indicator to determine the presence of inhibition ([5]; Table A3)	Adverse reactions: Tremor (incidence) [3]	ED50 (mg/kg) [1]	Sedation duration (mg/kg) [3]	Adverse reactions: Tongue stretching (incidence) [3]	Adverse reactions: Restlessness (incidence) [3]	Adverse reactions: Myoclonus (incidence) [3]
CCC(=O)C1(OC(=O)c2cncn2[C@H](C)c2ccccc2)CC1 [Compound C16]	0.5 to 1 mg/kg	>14	>10 mg/kg	1.31 ± 0.95 min	Red urine (8/8)	0.73 ± 0.23 min	0	> 1 µM	0	> 1 µM								
C[C@H](c1ccccc1)n1cncc1C(=O)OCC1(C(F)F)CCC1 [Compound A19]	0.1 to 0.5 mg/kg	>10	>5 mg/kg	6.13 ± 2.87 min	Red urine (8/8)	0.36 ± 0.16 min		> 10 µM		> 10 µM	0	0						
C[C@H](c1ccccc1)n1cncc1C(=O)OC1(C2CO2)CCC1 (stereo partly drawn) [Compound A20]	0.01 to 0.1 mg/kg	>22	>3 mg/kg	1.90 ± 0.74 min	Red urine (8/8)	0.11 ± 0.03 min		> 10 µM		> 10 µM	0	0						
CSCCSC(=O)c1cncn1[C@H](C)c1ccccc1 [Compound C30]	0.5 to 1 mg/kg	>11	>11 mg/kg	3.67 ± 1.48 min	Red urine (8/8)	0.23 ± 0.03 min	0		0	> 1 µM								
CCC1(COC(=O)c2cncn2[C@H](C)c2ccccc2)CC1 [Compound A9]	0.1 to 0.5 mg/kg	>13	>5 mg/kg	4.80 ± 1.25 min	8/8	0.40 ± 0.15 min		> 10 µM		> 10 µM	0	0	5/8					
CC#CC1(OC(=O)c2cncn2[C@H](C)c2ccccc2)CSC1 [Compound D29]	0.5 to 1 mg/kg	>13	>10 mg/kg	1.19 ± 0.64 min	(8/8)	0.73 ± 0.10 min							Tremor (3/8), Red urine					
C#CC1(OC(=O)c2c(F)ncn2[C@H](C)c2ccccc2)COC1 [Compound E4]		>20	>10 mg/kg	4.38 ± 1.29 min	(8/8)	0.45 ± 0.05 min								B (B means that the measured ED50 is in the range of 0.10-0.50 mg/kg (excluding 0.10 mg/kg, including 0.50 mg/kg).)	10.65 ± 1.31			
C=C=CC1(SC(=O)c2cncn2[C@H](C)c2ccccc2)COC1 [Compound D33]	0.5 to 1 mg/kg	>10	>8 mg/kg	0.92 ± 0.33 min	Red urine (8/8)	0.71 ± 0.22 min												
C#CC1(OC(=O)c2cncn2[C@H](C)c2ccccc2)CSC1 [Compound D27]	0.5 to 1 mg/kg	>10	>10 mg/kg	2.15 ± 1.03 min	Red urine (8/8)	0.32 ± 0.09 min												
C=C=CC(CC)OC(=O)c1c(F)ncn1[C@H](C)c1ccccc1 (stereo partly drawn) [Compound E77]	0.5 to 1 mg/kg	>12	>10 mg/kg	1.90 ± 0.74 min	urine (8/8)	0.11 ± 0.03 min							(2/8), Red					
CC#CC(C)OC(=O)c1cncn1[C@H](C)c1ccccc1 (stereo partly drawn) [Compound D32]	0.1 to 0.5 mg/kg	>16	>5 mg/kg	2.14 ± 1.23 min	Red urine (8/8)	0.49 ± 0.23 min										Tongue stretching (2/8),		
C[C@H](c1ccccc1)n1cncc1C(=O)OCC1(C)CSC1 [Compound B8]	0.5 to 1 mg/kg	>10	>10 mg/kg	5.00 ± 1.25 min	Red urine (8/8)	0.13 ± 0.05 min												
C=CC#CC(C)OC(=O)c1cncn1[C@H](C)c1ccccc1 (stereo partly drawn) [Compound D59]	0.1 to 0.5 mg/kg	>11	>13 mg/kg	5.83 ± 1.06 min	Red urine (8/8)	0.15 ± 0.02 min												
C[C@H](c1ccccc1)n1cncc1C(=O)OC1(C)COC1 [Compound B28]	0.1 to 0.5 mg/kg	>13	>10 mg/kg	3.32 ± 0.72 min	Red urine (8/8)	0.29 ± 0.15 min												
C[C@H](c1ccccc1)n1cnc(F)c1C(=O)OC1CC1 [Compound E34]	0.1 to 0.5 mg/kg	>12	>2 mg/kg	1.78 ± 1.09 min	(8/8)	0.29 ± 0.20 min										(1/8),		
C[C@H](c1ccccc1)n1c(Cl)nc(Cl)c1C(=O)OC1COC1 [Compound E132]	0.5 to 1 mg/kg	>14	>10 mg/kg	2.70 ± 1.15 min	urine (8/8)	0.18 ± 0.06 min											(2/8), Red	
CC#CC(C)(C)OC(=O)c1cncn1[C@H](C)c1ccccc1 [Compound D31]	0.5 to 1 mg/kg	>13	>9 mg/kg	2.65 ± 1.10 min	Red urine (8/8)	0.41 ± 0.15 min												
C=C(C)CC1(OC(=O)c2cncn2[C@H](C)c2ccccc2)CCC1 [Compound D26]	0.1 to 0.5 mg/kg	>10	>4 mg/kg	1.36 ± 0.52 min	urine (8/8)	0.56 ± 0.19 min												Myoclonus (3/8), Red
[2H]C#CC(C)(C)OC(=O)c1cncn1[C@H](C)c1ccccc1 [Compound D16]	0.5 to 1 mg/kg	>12	>6 mg/kg	1.17 ± 0.98 min	Red urine (8/8)	0.36 ± 0.19 min												
